Our source for the IC50 values is US20240368139A1, “NOVEL MODULATORS OF EHMT1 AND EHMT2 AND THERAPEUTIC USE THEREOF” (Tango Therapeutics, Inc., priority 2021, published 2024).

The target of one assay is T1, human EHMT1 982-1266 (Homo sapiens, UniProt Q9H9B1).
T1 sequence (Q9H9B1 982-1266): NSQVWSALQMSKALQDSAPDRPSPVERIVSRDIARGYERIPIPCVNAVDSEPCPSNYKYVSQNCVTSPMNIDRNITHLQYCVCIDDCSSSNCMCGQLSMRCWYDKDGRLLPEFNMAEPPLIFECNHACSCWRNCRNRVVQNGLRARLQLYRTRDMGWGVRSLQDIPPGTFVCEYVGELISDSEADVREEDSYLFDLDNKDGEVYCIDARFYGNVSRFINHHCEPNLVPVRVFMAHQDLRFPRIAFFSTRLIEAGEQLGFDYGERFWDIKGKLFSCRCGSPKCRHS
The assay can be described thus: EHMT1 enzyme assay on histone peptide substrate (3H-SAM SPA). Particulars: EHMT1 IC50, recombinant human EHMT1 982-1266, histone peptide substrate.

The target in a further assay is hERG potassium channels (Homo sapiens, UniProt Q12809). The assay can be described thus: In vitro hERG assay (SyncroPatch whole-cell recording). Particulars: hERG IC50, SyncroPatch, room temperature. (In general: hERG is a cardiac potassium channel; its block is linked to QT prolongation.)
The subject of another assay is H3K9me2 in HCT116 cells. Put plainly: HCT116 H3K9me2 in-cell western assay. As to conditions: Homo sapiens, HCT-116, 72 h, HCT116 cells, 72 hours incubation; read-out: H3K9me2 ICW IC50. In kind it is cell-based. A digest of the protocol:
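H3K9me2 signal (800 nm) was normalized to DRAQ5 DNA stain (700 nm) in an in-cell western. Cells were fixed with paraformaldehyde and probed overnight at 4° C with primary antibody.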

The next assay has as its target T2, human EHMT2 913-1193 (Homo sapiens, UniProt Q96KQ7).
T2 sequence (Q96KQ7 913-1193): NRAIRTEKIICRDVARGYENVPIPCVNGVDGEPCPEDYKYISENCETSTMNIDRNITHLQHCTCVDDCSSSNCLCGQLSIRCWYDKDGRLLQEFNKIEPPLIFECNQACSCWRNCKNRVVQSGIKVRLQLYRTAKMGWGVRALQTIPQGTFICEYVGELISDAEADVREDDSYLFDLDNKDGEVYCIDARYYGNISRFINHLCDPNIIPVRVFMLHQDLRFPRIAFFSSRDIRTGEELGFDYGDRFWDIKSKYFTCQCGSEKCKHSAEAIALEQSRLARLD
Put plainly: EHMT2 enzyme assay on histone peptide substrate (3H-SAM SPA). Particulars: EHMT2 IC50, recombinant human EHMT2 913-1193, histone peptide substrate.

Each structure is given as a SMILES string. Bounds are passed on as bounds.

Chain of hERG potassium channels (Q12809 whole entry): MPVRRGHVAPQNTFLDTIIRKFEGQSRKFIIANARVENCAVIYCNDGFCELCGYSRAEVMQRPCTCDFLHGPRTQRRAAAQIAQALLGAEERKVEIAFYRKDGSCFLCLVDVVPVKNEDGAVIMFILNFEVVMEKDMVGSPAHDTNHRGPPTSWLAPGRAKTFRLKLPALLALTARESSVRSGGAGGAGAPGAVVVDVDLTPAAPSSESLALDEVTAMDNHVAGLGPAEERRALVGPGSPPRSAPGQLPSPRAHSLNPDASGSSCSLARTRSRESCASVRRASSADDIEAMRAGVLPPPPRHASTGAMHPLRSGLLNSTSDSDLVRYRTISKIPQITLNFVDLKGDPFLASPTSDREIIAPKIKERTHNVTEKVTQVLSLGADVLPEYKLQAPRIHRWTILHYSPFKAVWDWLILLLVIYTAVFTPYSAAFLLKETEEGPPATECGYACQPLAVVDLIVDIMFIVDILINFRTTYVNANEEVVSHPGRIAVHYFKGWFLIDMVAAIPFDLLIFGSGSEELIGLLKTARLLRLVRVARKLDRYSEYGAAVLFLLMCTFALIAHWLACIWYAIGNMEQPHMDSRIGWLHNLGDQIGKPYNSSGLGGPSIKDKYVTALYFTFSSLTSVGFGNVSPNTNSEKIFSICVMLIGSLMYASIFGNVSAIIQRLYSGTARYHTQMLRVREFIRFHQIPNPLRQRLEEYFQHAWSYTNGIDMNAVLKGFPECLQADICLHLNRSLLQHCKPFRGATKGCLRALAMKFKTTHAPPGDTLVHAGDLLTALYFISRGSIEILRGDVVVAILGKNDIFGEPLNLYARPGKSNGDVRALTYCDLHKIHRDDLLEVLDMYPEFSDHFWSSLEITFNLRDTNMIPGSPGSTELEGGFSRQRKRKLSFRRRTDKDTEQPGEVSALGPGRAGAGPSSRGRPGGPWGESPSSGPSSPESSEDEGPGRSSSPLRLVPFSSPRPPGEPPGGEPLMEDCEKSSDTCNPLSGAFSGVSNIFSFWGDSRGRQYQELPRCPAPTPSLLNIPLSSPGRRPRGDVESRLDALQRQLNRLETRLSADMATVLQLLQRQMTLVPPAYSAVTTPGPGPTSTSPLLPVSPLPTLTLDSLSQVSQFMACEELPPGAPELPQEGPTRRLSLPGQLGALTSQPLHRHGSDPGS
Protocol for hERG potassium channels: CHO cells stably expressing hERG potassium channels from Sophion Biosciences were used for this test. The cells were cultured in a humidified and air-controlled (5% CO2) incubator at 37° C.
The CHO hERG Culture Medium consisted of 500 mL Ham's F12 (Invitrogen), 50 mL FBS (HyClone), 1 mL G418/Geneticin (Invitrogen, and 1 mL Hygromycin B (Invitrogen)
The CHO cells which were at least two days after plating and more than 75% confluent would be used for experiments. Before testing, cells were harvested using TrypLE and resuspended in the physiological solution at the room temperature.
For the electrophysiological recordings the following solutions were used (Table 5). The physiological solution and external solution were prepared at least one month. The intracellular solution was prepared in batches aliquoted, and stored at 4° C. until used.
Test compounds were dissolved in 100% DMSO to obtain stock solutions for different test concentrations. Then the stock solutions were further diluted into external solution to achieve final concentrations for testing. Visual check for precipitation was conducted before testing. Final DMSO concentration in external solution was not more than 0.30% for the test compounds.
Voltage command protocol: From this holding potential of −80 mV, the voltage was first stepped to −50 mV for 80 ms for leak subtraction, and then stepped to +20 mV for 4800 ms to open hERG channels. After that, the voltage was stepped back down to −50 mV for 5000 ms, causing a “rebound” or tail current, which was measured and collected for data analysis. Finally, the voltage was stepped back to the holding potential (−80 mV, 1000 ms). This voltage command protocol was repeated every 20000 msec. This command protocol was performed continuously during the test (vehicle control and test compound).
hERG SyncroPatch assay was conducted at room temperature. The Setup, Prime Chip, Catch and Seal Cells, Amplifier Settings, Voltage and Application Protocols were established with Biomek Software (Nanion). One addition of 40 μL of the vehicle was applied, followed by 300s for a baseline period. Then the doses of the compounds were added with 40 μL. The exposure of test compound at each concentration was no less than 300s. […] Five concentrations (0.30 μM, 1.00 μM, 3.00 μM, 10.00 μM and 30.00 μM) were tested for each compound. Minimum 2 replicates per concentration were obtained.
Within each well recording, percent of control values were calculated for each test compound concentration current response based on peak current in presence of reference control (current response/peak current)×100%. The Dose-Response curves were fit to the standard Hill equation as shown below:
Where X is the logarithm of concentration, Ipost cpd/Ipre cpa is the normalized peak current amplitude, Top is 1 and Bottom is equal to 0.
Curve-fitting and IC50 calculations were performed by GraphPad Prism 5.0.

Broadly, the IC50 is the midpoint of a concentration-inhibition curve. `CNc1ccnc(Nc2cc3c(c(C4=CCN(C)CCC4)c2)OCO3)n1` [Compound 335]: the IC50 was in the range of 100 to 500 nM on human EHMT1 982-1266, 5000 to 10000 nM against hERG potassium channels, 100 to 500 nM in the assay with H3K9me2 in HCT116 cells and 100 to 500 nM on human EHMT2 913-1193.
Take `CNc1ccnc(Nc2cc3c(c(C4=CCNCCC4)c2)OCO3)n1` [Compound 336]: the IC50 is less than 100 nM at human EHMT1 982-1266, 5000 to 10000 nM at hERG potassium channels, less than 100 nM with H3K9me2 in HCT116 cells and less than 100 nM on human EHMT2 913-1193.
Regarding `CNc1cc(C)nc(Nc2cc3c(c(C4CCCNCC4)c2)OCCC3)n1` (stereo not shown) [Compound 341], the half-inhibitory concentration (IC50) at human EHMT1 982-1266 is less than 100 nM; against hERG potassium channels, more than 10000 nM; with H3K9me2 in HCT116 cells, 100 to 500 nM; at human EHMT2 913-1193 it was 100 to 500 nM.
Turning to `CNc1cc(C)nc(Nc2cc3c(c(C4CCCNCC4)c2)OCCO3)n1` (stereo not shown) [Compound 348], the IC50 on human EHMT1 982-1266 was 100 to 500 nM; against hERG potassium channels it was more than 10000 nM; in the assay with H3K9me2 in HCT116 cells, 100 to 500 nM; at human EHMT2 913-1193, 100 to 500 nM.
